Data published in PMC7931236, “Nonclassical antagonism between human lysozyme and AMPs against Pseudomonas aeruginosa” (FEBS Open Bio, 2021).
In brackets after ≈: the same amount, converted by molar mass. Like-named read-outs stand apart in the source and are kept apart here. Where a SMILES comes first, the peptide text is derived from it. Bridges are numbered along the chain shown (N, C = ends). Where no end group is shown, it is not given here.

Columns and labels:
[1] = test system: P. aeruginosa strain Xen05
Procedure: (§1) The mucoid bioluminescent P. aeruginosa strain Xen05 was purchased from Caliper life Sciences, Inc. The nonmucoid bioluminescent strain H1001 was the kind gift of Robert Hancock (University of British Columbia, Vancouver, BC, Canada). Both strains were stored as glycerol stocks at −80 °C. Recombinant hLYS and freeze‐dried Micrococcus luteus were purchased from Sigma Millipore (Burlington, MA, USA). Protegrin 1 AMP (PTG1) and HB71 peptides (> 95% purity) were obtained from Peptide 2.0. LL‐37, Melittin, and Tet009 peptides (> 95% purity) were purchased from GenScript (Piscataway, NJ, USA). Human beta defensin 3 AMP (hBD3) peptide was purchased from AnaSpec. Peptide stock solutions were stored at −20 °C. All other reagents and materials were purchased from Fisher Scientific (Waltham, MA, USA).
(§2) We analyzed the dose–response potency of each AMP against both strains via a well‐validated luminescence assay. Hundred microlitre of exponential phase cells (5 × 10^6 cells/mL) in dextrose/tris (DT) buffer (20 mM dextrose, 100 mM Tris, pH 7.4) were incubated with a 1 : 2 dilution series of each AMP in white, flat‐bottomed, 96‐well plates at 37 °C for 4 h. Culture luminescence was then quantified by imaging with a CCD camera (Bio‐Rad ChemiDoc XRS System, Hercules, CA, USA). Measurements were normalized to the no‐treatment controls on the same plate, and potency was quantified by a 3‐parameter logistic regression of luminescence versus AMP concentration, yielding EC50 values (Fig. S1). Importantly, the luminescence of these P. aeruginosa strains is known to correlate with bacterial viability. Assays were done in technical triplicate or quadruplicate and repeated at least twice.

[2] = test system: P. aeruginosa strain H1001
Procedure: as §1, §2

[3] = test system: P. aeruginosa strain Xen05; assay type: cell-based, Pseudomonas aeruginosa; conditions: for Interaction with hLYS against mucoid strain Xen05: class by FICI, checkerboard with hLYS
Procedure: (§3) Checkerboard, or 2‐D MIC, assays were performed analogous to the single agent dose–response studies above, except that 1 : 2 serial dilutions of hLYS were made across the rows of a 96‐well plate, and 1 : 2 serial dilutions of the AMP were made down the columns of the same plate, such that each well contained a unique concentration mixture of the two agents. Controls without treatment (growth control) and without bacteria (sterility control) were included on all plates. Assays were repeated as three independent trials (biological replicates), and results are the average of all measurements.
(§4) To quantify antibacterial interactions, fractional inhibitory concentrations (FIC) and FIC index values (FICI) were calculated as described elsewhere, though in this case using EC50 values in place of conventional growth/no growth visual observations. Briefly, the FIC for one agent is the ratio of its […]. The corresponding FIC values for the two agents in each row and column, respectively, of a checkerboard plate may be summed, and the lowest FIC sum on the plate is designated the FICI.
(§5) Based on the EC50 values of AMP monotherapies, we designed checkerboard assays wherein antibacterial interactions between hLYS and each AMP were quantified. Classical drug interactions such as synergy, additivity, or antagonism manifest characteristic trends across a given checkerboard assay plate, where FICI < 0.5 is defined as synergy, 0.5 ≤ FICI < 4 is defined as additivity, and FICI ≥ 4 is defined as antagonism. Nonclassical interactions, as observed in some of our checkerboard results, might include a concentration‐dependent switch from synergy (or additivity) to antagonism. In extreme cases, we observed inversion of the dose–response curves for specific combinations and concentration ranges of our antibacterial agents, as discussed below.

[4] = test system: P. aeruginosa strain H1001; assay type: cell-based, Pseudomonas aeruginosa; conditions: for Interaction with hLYS against nonmucoid strain H1001: class by FICI, checkerboard with hLYS
Procedure: as §3, §4, §5

[5] = Fig. S1 panels A-F, M, single agent dose response, technical triplicate or quadruplicate, repeated at least twice
[6] = single agent, luminescence, DT buffer (20 mM dextrose, 100 mM Tris, pH 7.4), 5 × 10^6 cells/mL, 37 °C, 4 h, 3-parameter logistic regression, technical triplicate or quadruplicate, repeated at least twice
[7] = Fig. S1 panels G-L, N, single agent dose response, technical triplicate or quadruplicate, repeated at least twice
[8] = AMP combined with hLYS, FIC from EC50 values (50% luminescence reduction), lowest FIC sum on plate, three independent trials

Row | Molecule | 95% confidence intervals for EC50 values, Xen05 [1, 5] [µg/mL] | EC50 Xen05 [1, 6] [µg/mL] | 95% confidence intervals for EC50 values, H1001 [2, 7] [µg/mL] | EC50 H1001 [2, 6] [µg/mL] | 95% confidence intervals for EC50 values, Xen05 ([1]; strain Xen05, 4 h) [µg/mL] | EC50 Xen05 ([1]; strain Xen05, 4 h, pH 7.4) [µg/mL] | 95% confidence intervals for EC50 values, H1001 ([2]; strain H1001, 4 h) [µg/mL] | EC50 H1001 ([2]; strain H1001, 4 h, pH 7.4) [µg/mL] | Interaction with hLYS against mucoid strain Xen05 [3] | Interaction with hLYS against nonmucoid strain H1001 [4] | FICI Xen05 [3, 8] | FICI H1001 [4, 8]
1 | RRWKIVVIRWRR [Tet009] | 1.4 to 1.5 | 1.5 | 2.5 to 2.9 | 2.7 |  |  |  |  |  |  |  | 
2 | FAKKLAKKLKKLAKKLAK [HB71] | 1.4 to 1.8 | 1.6 |  | 2.6 |  |  |  |  |  |  |  | 
3 | CC(C)C[C@H](NC(=O)[C@H](CCCNC(=N)N)NC(=O)CNC(=O)CNC(=O)[C@@H](N)CCCNC(=N)N)C(=O)N[C@H]1CSSC[C@@H](C(=O)N[C@H](C(=O)NCC(=O)N[C@@H](CCCNC(=N)N)C(=O)O)C(C)C)NC(=O)[C@H](C(C)C)NC(=O)[C@@H]2CSSC[C@H](NC(=O)[C@H](Cc3ccc(O)cc3)NC1=O)C(=O)N[C@@H](CCCNC(=N)N)C(=O)N[C@@H](CCCNC(=N)N)C(=O)N[C@@H](CCCNC(=N)N)C(=O)N[C@@H](Cc1ccccc1)C(=O)N2 [PTG‐1] (H-RGGRLCYCRRRFCVCVGR-OH; disulfide 6-15, 8-13 (inferred); N-terminus and C-terminus assumed) |  |  |  |  | 1.1 to 1.2 | 1.1 (≈ 0.51 µM) | 1.6 to 1.8 | 1.7 (≈ 0.788 µM) | synergy (FICI < 0.5 is defined as synergy) | synergy (FICI < 0.5 is defined as synergy) |  | 
4 | GIINTLQKYYCRVRGGRCAVLSCLPKEEQIGKCSTRGRKCCRRKK (disulfide 11-40, 18-33, 23-41 (inferred)) [hBD3] |  |  |  |  | 5.5 to 6.5 | 6.0 | 6.9 to 7.1 | 7.0 | additivity (0.5 ≤ FICI < 4 is defined as additivity) | synergy (FICI < 0.5 is defined as synergy) |  | 
5 | CC[C@H](C)[C@H](NC(=O)[C@H](CCCCN)NC(=O)[C@H](CCC(=O)O)NC(=O)[C@H](CCCCN)NC(=O)[C@H](CO)NC(=O)[C@H](CCCCN)NC(=O)[C@H](CCCNC(=N)N)NC(=O)[C@H](Cc1ccccc1)NC(=O)[C@H](Cc1ccccc1)NC(=O)[C@H](CC(=O)O)NC(=O)CNC(=O)[C@H](CC(C)C)NC(=O)[C@@H](N)CC(C)C)C(=O)NCC(=O)N[C@@H](CCCCN)C(=O)N[C@@H](CCC(=O)O)C(=O)N[C@@H](Cc1ccccc1)C(=O)N[C@@H](CCCCN)C(=O)N[C@@H](CCCNC(=N)N)C(=O)N[C@H](C(=O)N[C@H](C(=O)N[C@@H](CCC(N)=O)C(=O)N[C@@H](CCCNC(=N)N)C(=O)N[C@H](C(=O)N[C@@H](CCCCN)C(=O)N[C@@H](CC(=O)O)C(=O)N[C@@H](Cc1ccccc1)C(=O)N[C@@H](CC(C)C)C(=O)N[C@@H](CCCNC(=N)N)C(=O)N[C@@H](CC(N)=O)C(=O)N[C@@H](CC(C)C)C(=O)N[C@H](C(=O)N1CCC[C@H]1C(=O)N[C@@H](CCCNC(=N)N)C(=O)N[C@H](C(=O)N[C@@H](CCC(=O)O)C(=O)N[C@@H](CO)C(=O)O)[C@@H](C)O)C(C)C)[C@@H](C)CC)C(C)C)[C@@H](C)CC [LL37] | 4.8 to 5.1 | 5.0 (≈ 1.11 µM) | 5.7 to 6.6 | 6.1 (≈ 1.36 µM) |  |  |  |  |  |  | 0.5 ± 0.2 | 0.5 ± 0.2
6 | human lysozyme [hLYS] | 800 to 1200 | 990 | 700 to 1100 | 890 |  |  |  |  |  |  |  | 
